From patent publication US9877961B2, “Anticoagulant reversal agents” (PEROSPHERE INC., priority 2011, dated 2018)
Marks after values point to notes of the source that are not given here.

What was measured:
[1] = Binding of anticoagulants to DAP (DLS; summary Tables 2 and 3); conditions: lowest DAP:anticoagulant ratio with association above 50 nm apparent diameter in phosphate buffered saline
[2] = tested on: apixaban (ELIQUIS®) anticoagulation; assay: Rat tail transection bleeding assay, apixaban; assay type: in vivo; conditions: apixaban, oral; Bleeding assay; minimal in vivo reversal dose; assumes 50% oral bioavailability
Description: (§1) Rat tail bleeding assay or rat tail transection assay is an assay that measures blood loss, e.g., blood loss after drug administration. In one embodiment, where the effect of the compound of the invention (e.g., DAP) is being tested, at the Tmax of the anticoagulant, DAP is administered intravenously. After 20 minutes, rat tails are transected approximately 1 mm from the tip, placed in room temperature saline, and blood is collected for 30 minutes and weighed.
(§2) Three rats each were administered 2 mg of rivaroxaban. One rat received a sham reversal containing no DAP, the second received 2.5 mg of DAP, and the third received 12.5 mg DAP. A fourth fat received sham anticoagulant and reversal doses (“sham”). 20 minutes after the reversal dose, tails were transected 1 mm from the tip, placed in room temperature saline, and blood loss was collected for 30 minutes and then weighed.
Same procedures were used with 1.25 mg apixaban (ELIQUIS®) alone or in combination with 5 or 12.5 mg DAP; with 15.5 mg dabigatran etexilate (PRADAXA®) alone or in combination with 5 or 12.5 mg DAP; and with 5 mg edoxaban (LIXIANA®) alone or in combination with 12.5 mg DAP.

[3] = assumption used for Table 3; cited from earlier work
Factor Xa = conditions: cited from earlier work
[4] = cited from earlier work
[5] = tested on: fondaparinux anticoagulation; assay: DAP reversal of fondaparinux (ARIXTRA®) anticoagulation in vivo, chromogenic Factor Xa assay; design: species or system rat; conditions: fondaparinux s.c.; Xa kit; 200 mg/kg DAP was the lowest dose administered
Description: The anti-factor Xa assay directly measures anti-factor Xa activity. The methodology behind an anti-factor Xa assay is that patient plasma is added to a known amount of excess factor Xa and excess antithrombin. If a factor Xa inhibitor is present in the patient plasma, it will reduce the enzymatic activity of factor Xa. The amount of residual factor Xa is inversely proportional to the amount of anti-Xa agent in the plasma. The amount of residual factor Xa is detected by adding a chromogenic substrate that mimics the natural substrate of factor Xa, making residual factor Xa cleave it, releasing a colored compound that can be detected by a spectrophotometer. […] Results are given in anticoagulant concentration in units/mL of antifactor Xa, such that high values indicate high levels of anticoagulation and low values indicate low levels of anticoagulation.
5 mg/kg fondaparinux was administered subcutaneously to rats. 200 mg/kg DAP was administered intravenously after 2 hours. Activity was measured by chromogenic 510 k cleared Factor Xa Assay (Biophen) at 10, 20, 30 and 60 minutes after DAP administration.

[6] = tested on: dabigatran (PRADAXA®) anticoagulation; assay: DAP reversal of dabigatran (PRADAXA®) anticoagulation in vivo, aPTT; design: species or system rat; conditions: 40 mg/kg oral gavage, 2 hours; baseline 43 seconds
Text: The activated partial thromboplastin time (aPTT) assay is an assay that measures how long it takes for the blood to clot. Blood samples are collected for direct measurement or in tubes with oxalate and citrate to arrest coagulation by calcium until the assay can be performed. In the assay, a phospholipid, an activator (silica, celite, kaolin, ellagic acid, etc.), and calcium are mixed into the plasma to induce coagulation. The assay measures the time until a thrombus (clot) forms.
A male albino rat, weighing 430 g, was administered 40 mg/kg of PRADAXA® (20 mg PRADAXA®; overdose of PRADAXA®) by oral gavage.
Approximately 2 hours into PRADAXA® treatment, 200 mg/kg DAP (100 mg DAP) was administered as an intravenous bolus injection. Approximately 2 hours later, the rat was administered a dose of 100 mg/kg of DAP (50 mg DAP). In another hour, the rat was administered another dose of 100 mg/kg of DAP (50 mg DAP). aPTT was measured throughout the course of the entire treatment.

[7] = tested on: rivaroxaban anticoagulation; assay: Rat tail transection bleeding assay, rivaroxaban; assay type: in vivo; conditions: rivaroxaban, oral; Bleeding assay; minimal in vivo reversal dose; assumes 60% oral bioavailability
Description: as §1, §2

SMILES	DLS Binding Molar Ratio [DAP/drug] [1]	Reversal Molar Ratio [DAP/drug] [2]	oral bioavailability (assumed) [3]	potentiation of innate neutralization of Factor Xa by ATIII (Factor Xa)	time to peak steady-state plasma concentration ([4]; patients, 2.5 mg once daily, post-dose)	absolute bioavailability ([4]; subcutaneous injection)	Reversal Molar Ratio [DAP/drug] [5]	aPTT after PRADAXA® administration [6]	Reversal Molar Ratio [DAP/drug] [7]
COc1ccc(-n2nc(C(N)=O)c3c2C(=O)N(c2ccc(N4CCCCC4=O)cc2)CC3)cc1 [Apixaban, 1-(4-methoxyphenyl)-7-oxo-6-[4-(2-oxopiperidin-1-yl)phenyl]-4,5-dihydropyrazolo[5,4-c]pyridine-3-carboxamide]	10	8*	50%						
CO[C@H]1O[C@H](COS(=O)(=O)[O-])[C@@H](O[C@@H]2O[C@@H](C(=O)[O-])[C@@H](O[C@H]3O[C@H](COS(=O)(=O)[O-])[C@@H](O[C@@H]4O[C@H](C(=O)[O-])[C@@H](O[C@H]5O[C@H](COS(=O)(=O)[O-])[C@@H](O)[C@H](O)[C@H]5NS(=O)(=O)[O-])[C@H](O)[C@H]4O)[C@H](OS(=O)(=O)[O-])[C@H]3NS(=O)(=O)[O-])[C@H](O)[C@H]2OS(=O)(=O)[O-])[C@H](O)[C@H]1NS(=O)(=O)[O-].[Na+].[Na+].[Na+].[Na+].[Na+].[Na+].[Na+].[Na+].[Na+].[Na+] [Fondaparinux, methyl O-2-deoxy-6-O-sulfo-2-(sulfoamino)-α-D-glucopyranosyl-(1→4)-O-β-D-glucopyra-nuronosyl-(1→4)-O-2-deoxy-3,6-di-O-sulfo-2-(sulfoamino)-α-D-glucopyranosyl-(1→4)-O-2-O-sulfo-α-L-idopyranuronosyl-(1→4)-2-deoxy-6-O-sulfo-2-(sulfoamino)-α-D-glucopyranoside, decasodium salt]	3			about 300 times	approximately 3 hours	100%	130		
CCCCCCOC(=O)NC(=N)c1ccc(NCc2nc3cc(C(=O)N(CCC(=O)OCC)c4ccccn4)ccc3n2C)cc1.CS(=O)(=O)O [Dabigatran etexilate, β-Alanine, N-[[2-[[[4-[[[(hexyloxy)carbonyl]amino]iminomethyl]phenyl]amino]methyl]-1-methyl-1H-benzimidazol-5-yl]carbonyl]-N-2-pyridinyl-,ethyl ester, methanesulfonate]			5%					81 s	
O=C(NC[C@H]1CN(c2ccc(N3CCOCC3=O)cc2)C(=O)O1)c1ccc(Cl)s1 [Rivaroxaban, 5-Chloro-N-({(5S)-2-oxo-3-[4-(3-oxo-4-morpholinyl)phenyl]-1,3-oxazolidin-5-yl}methyl)-2-thiophenecarboxamide]	9		60%						3*
